The source of these data is ChEMBL document CHEMBL5634154, “Drug repurposing and structure-based discovery of new PDE4 and PDE5 inhibitors” (Eur J Med Chem, 2023).

The target of assay [1] is 3',5'-cyclic-AMP phosphodiesterase 4D (Homo sapiens, UniProt Q08499). Kind of assay: Inhibition of his-tagged recombinant human PDE4D catalytic domain (T86 to S413 residues) expressed in Escherichia coli BL21(DE3) using [3H]-cAMP as substrate incubated for 10 mins by SPA assay.
Assay [2] deals with cGMP-inhibited 3',5'-cyclic phosphodiesterase 3A (Homo sapiens, UniProt Q14432). As to the kind of experiment: Inhibition of full-length recombinant human PDE3A using [3H]-cGMP as substrate incubated for 10 mins by SPA assay.
Assay [3] concerns the target cGMP-specific 3',5'-cyclic phosphodiesterase (Homo sapiens, UniProt O76074). As to the kind of experiment: Inhibition of his-tagged recombinant human PDE5A catalytic domain (E535 to Q860 residues) expressed in Escherichia coli BL21(DE3) using [3H]-cGMP as substrate incubated for 10 mins by SPA assay.
The target of assay [4] is Cone cGMP-specific 3',5'-cyclic phosphodiesterase subunit alpha' (Homo sapiens, UniProt P51160). As to the kind of experiment: Inhibition of full-length recombinant human PDE6C using [3H]-cGMP as substrate incubated for 10 mins by SPA assay.
The target in assay [5] is High affinity 3',5'-cyclic-AMP phosphodiesterase 7A (Homo sapiens, UniProt Q13946). Kind of assay: Inhibition of his-tagged recombinant human PDE7A catalytic domain (S130 to S482 residues) expressed in Escherichia coli BL21(DE3) using [3H]-cAMP as substrate incubated for 10 mins by SPA assay.
In assay [6] the target is High affinity cAMP-specific and IBMX-insensitive 3',5'-cyclic phosphodiesterase 8A (Homo sapiens, UniProt O60658). As to the kind of experiment: Inhibition of full-length recombinant human PDE8A using [3H]-cAMP as substrate incubated for 10 mins by SPA assay.
The target of assay [7] is High affinity cGMP-specific 3',5'-cyclic phosphodiesterase 9A (Homo sapiens, UniProt O76083). As to the kind of experiment: Inhibition of his-tagged recombinant human PDE9A catalytic domain (P181 to K506 residues) expressed in Escherichia coli BL21(DE3) using [3H]-cGMP as substrate incubated for 10 mins by SPA assay.
The target of assay [8] is cAMP and cAMP-inhibited cGMP 3',5'-cyclic phosphodiesterase 10A (Homo sapiens, UniProt Q9Y233). As to the kind of experiment: Inhibition of his-tagged recombinant human PDE10A catalytic domain (S439 to A766 residues) expressed in Escherichia coli BL21(DE3) using [3H]-cAMP as substrate incubated for 10 mins by SPA assay.
Assay [9] deals with Dual 3',5'-cyclic-AMP and -GMP phosphodiesterase 11A (Homo sapiens, UniProt Q9HCR9). Kind of assay: Inhibition of full-length recombinant human PDE11A using [3H]-cAMP as substrate incubated for 10 mins by SPA assay.
Assay [10] deals with T1, Dual specificity calcium/calmodulin-dependent 3',5'-cyclic nucleotide phosphodiesterase 1A (Homo sapiens, UniProt P54750). As to the kind of experiment: Inhibition of full-length recombinant human PDE1A using [3H]-cGMP as substrate at 1 uM incubated for 10 mins by SPA assay relative to control.
For assay [11], the target named is T2, cGMP-dependent 3',5'-cyclic phosphodiesterase (Homo sapiens, UniProt O00408). As to the kind of experiment: Inhibition of full-length recombinant human PDE2A using [3H]-cGMP as substrate at 1 uM incubated for 10 mins by SPA assay relative to control.
The species entered for a further assay is Homo sapiens. As to the kind of experiment: Selectivity index, ratio of IC50 for full-length recombinant human PDE6C using [3H]-cGMP as substrate to IC50 for his-tagged recombinant human PDE4D catalytic domain (T86 to S413 residues) expressed in Escherichia coli BL21(DE3) using [3H]-cAMP as substrate.
Assay [12] addresses T1, Dual specificity calcium/calmodulin-dependent 3',5'-cyclic nucleotide phosphodiesterase 1A. As to the kind of experiment: Inhibition of full-length recombinant human PDE1A using [3H]-cGMP as substrate incubated for 10 mins by SPA assay.
The target in assay [13] is T2, cGMP-dependent 3',5'-cyclic phosphodiesterase. As to the kind of experiment: Inhibition of full-length recombinant human PDE2A using [3H]-cGMP as substrate incubated for 10 mins by SPA assay.

Where a name gives a salt, the structure may show the parent alone.

Sequence of High affinity cAMP-specific and IBMX-insensitive 3',5'-cyclic phosphodiesterase 8A (O60658 whole entry, the tested form may be a part): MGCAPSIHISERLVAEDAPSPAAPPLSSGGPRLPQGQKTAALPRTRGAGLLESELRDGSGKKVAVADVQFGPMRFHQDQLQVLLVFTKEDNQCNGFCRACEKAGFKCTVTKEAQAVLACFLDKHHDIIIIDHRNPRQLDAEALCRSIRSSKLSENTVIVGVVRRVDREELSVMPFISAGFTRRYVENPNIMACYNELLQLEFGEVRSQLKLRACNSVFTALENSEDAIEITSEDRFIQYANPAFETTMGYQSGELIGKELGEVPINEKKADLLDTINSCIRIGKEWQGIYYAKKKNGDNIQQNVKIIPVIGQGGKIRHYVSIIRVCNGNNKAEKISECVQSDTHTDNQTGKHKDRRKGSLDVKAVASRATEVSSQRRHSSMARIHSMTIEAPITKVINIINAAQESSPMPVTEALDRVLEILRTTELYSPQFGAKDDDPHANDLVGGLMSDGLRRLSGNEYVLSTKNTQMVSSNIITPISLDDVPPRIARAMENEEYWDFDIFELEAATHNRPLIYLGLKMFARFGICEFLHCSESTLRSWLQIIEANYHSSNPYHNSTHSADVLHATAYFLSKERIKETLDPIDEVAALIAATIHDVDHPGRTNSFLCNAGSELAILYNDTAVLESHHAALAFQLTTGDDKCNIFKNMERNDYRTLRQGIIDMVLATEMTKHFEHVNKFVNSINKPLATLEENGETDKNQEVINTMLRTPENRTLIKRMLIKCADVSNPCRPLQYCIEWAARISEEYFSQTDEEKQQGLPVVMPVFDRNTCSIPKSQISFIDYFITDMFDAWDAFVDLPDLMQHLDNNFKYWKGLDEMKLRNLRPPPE
Sequence of cAMP and cAMP-inhibited cGMP 3',5'-cyclic phosphodiesterase 10A (Q9Y233 whole entry, the tested form may be a part): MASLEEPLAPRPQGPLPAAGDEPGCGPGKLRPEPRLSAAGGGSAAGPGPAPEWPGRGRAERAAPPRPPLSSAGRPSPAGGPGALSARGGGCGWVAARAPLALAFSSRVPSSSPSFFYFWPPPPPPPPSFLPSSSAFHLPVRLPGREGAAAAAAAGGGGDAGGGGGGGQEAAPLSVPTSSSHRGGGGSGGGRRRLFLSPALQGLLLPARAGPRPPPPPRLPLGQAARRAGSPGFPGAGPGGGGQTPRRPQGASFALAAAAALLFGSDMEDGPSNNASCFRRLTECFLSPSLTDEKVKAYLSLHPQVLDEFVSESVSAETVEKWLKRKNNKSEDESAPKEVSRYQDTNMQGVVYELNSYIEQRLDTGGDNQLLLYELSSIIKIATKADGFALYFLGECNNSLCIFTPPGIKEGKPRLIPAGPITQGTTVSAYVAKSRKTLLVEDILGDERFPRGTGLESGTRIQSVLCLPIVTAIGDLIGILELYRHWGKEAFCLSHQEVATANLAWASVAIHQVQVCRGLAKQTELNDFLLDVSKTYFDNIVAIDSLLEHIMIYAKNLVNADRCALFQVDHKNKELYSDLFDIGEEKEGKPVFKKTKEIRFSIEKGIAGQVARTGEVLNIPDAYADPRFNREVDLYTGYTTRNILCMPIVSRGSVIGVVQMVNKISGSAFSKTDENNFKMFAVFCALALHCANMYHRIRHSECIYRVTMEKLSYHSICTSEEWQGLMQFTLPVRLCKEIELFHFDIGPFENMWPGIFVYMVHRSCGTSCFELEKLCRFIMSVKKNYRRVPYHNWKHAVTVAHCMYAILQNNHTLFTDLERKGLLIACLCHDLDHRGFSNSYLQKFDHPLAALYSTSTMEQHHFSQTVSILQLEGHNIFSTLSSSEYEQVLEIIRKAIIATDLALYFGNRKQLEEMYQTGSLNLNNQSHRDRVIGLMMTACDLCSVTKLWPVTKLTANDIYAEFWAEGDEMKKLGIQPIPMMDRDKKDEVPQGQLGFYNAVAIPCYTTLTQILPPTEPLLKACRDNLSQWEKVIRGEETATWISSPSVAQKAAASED
Sequence of High affinity 3',5'-cyclic-AMP phosphodiesterase 7A (Q13946 whole entry, the tested form may be a part): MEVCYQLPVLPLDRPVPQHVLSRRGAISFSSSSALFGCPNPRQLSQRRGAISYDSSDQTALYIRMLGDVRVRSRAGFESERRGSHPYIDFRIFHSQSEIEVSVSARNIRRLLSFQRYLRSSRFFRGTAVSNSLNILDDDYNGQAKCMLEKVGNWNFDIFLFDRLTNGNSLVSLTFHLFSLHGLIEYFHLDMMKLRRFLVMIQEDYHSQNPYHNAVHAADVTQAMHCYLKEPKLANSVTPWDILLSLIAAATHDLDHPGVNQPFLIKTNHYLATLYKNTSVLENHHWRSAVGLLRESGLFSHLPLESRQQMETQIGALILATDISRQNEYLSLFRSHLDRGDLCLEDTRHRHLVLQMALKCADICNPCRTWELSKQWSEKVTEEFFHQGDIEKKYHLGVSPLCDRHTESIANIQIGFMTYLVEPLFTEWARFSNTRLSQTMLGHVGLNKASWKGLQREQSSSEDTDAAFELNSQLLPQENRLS
T2 sequence (O00408 whole entry, the tested form may be a part): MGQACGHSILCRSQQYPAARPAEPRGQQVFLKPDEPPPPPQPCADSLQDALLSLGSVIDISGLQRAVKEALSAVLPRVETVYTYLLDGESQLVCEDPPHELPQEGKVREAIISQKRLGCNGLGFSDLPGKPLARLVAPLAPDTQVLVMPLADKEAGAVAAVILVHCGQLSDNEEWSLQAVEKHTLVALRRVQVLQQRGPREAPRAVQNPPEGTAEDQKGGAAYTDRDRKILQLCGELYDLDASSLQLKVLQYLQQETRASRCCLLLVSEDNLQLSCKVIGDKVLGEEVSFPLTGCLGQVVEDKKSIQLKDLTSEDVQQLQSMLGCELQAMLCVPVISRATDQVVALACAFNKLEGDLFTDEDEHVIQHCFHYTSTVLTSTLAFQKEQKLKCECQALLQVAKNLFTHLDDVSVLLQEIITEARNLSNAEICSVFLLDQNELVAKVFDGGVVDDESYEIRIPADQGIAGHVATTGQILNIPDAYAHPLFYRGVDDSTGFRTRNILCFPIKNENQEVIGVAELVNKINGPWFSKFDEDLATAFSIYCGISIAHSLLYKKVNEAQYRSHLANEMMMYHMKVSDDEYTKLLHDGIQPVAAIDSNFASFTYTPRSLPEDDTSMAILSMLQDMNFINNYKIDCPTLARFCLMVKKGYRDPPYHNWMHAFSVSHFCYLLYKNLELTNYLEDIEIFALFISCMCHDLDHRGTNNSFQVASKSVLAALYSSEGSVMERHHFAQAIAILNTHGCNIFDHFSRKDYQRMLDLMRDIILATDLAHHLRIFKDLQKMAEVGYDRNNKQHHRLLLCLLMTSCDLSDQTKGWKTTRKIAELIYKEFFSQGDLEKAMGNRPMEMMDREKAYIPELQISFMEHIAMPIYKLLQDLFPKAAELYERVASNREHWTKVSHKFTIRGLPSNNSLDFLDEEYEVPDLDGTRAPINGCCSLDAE
T1 sequence (P54750 whole entry): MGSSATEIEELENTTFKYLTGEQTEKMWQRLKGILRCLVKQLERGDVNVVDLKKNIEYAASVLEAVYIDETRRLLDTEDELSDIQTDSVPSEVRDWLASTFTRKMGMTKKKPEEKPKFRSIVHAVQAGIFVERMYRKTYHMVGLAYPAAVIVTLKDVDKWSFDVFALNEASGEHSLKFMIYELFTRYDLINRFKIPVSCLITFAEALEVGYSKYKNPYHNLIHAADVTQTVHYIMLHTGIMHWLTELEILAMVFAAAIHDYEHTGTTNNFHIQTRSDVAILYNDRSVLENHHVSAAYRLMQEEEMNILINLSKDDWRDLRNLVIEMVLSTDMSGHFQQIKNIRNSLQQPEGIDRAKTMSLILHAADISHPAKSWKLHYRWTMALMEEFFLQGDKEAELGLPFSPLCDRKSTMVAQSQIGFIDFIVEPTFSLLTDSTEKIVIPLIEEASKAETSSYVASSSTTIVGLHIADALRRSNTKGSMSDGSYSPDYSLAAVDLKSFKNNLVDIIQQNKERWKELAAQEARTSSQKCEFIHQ
Sequence of Dual 3',5'-cyclic-AMP and -GMP phosphodiesterase 11A (Q9HCR9 whole entry): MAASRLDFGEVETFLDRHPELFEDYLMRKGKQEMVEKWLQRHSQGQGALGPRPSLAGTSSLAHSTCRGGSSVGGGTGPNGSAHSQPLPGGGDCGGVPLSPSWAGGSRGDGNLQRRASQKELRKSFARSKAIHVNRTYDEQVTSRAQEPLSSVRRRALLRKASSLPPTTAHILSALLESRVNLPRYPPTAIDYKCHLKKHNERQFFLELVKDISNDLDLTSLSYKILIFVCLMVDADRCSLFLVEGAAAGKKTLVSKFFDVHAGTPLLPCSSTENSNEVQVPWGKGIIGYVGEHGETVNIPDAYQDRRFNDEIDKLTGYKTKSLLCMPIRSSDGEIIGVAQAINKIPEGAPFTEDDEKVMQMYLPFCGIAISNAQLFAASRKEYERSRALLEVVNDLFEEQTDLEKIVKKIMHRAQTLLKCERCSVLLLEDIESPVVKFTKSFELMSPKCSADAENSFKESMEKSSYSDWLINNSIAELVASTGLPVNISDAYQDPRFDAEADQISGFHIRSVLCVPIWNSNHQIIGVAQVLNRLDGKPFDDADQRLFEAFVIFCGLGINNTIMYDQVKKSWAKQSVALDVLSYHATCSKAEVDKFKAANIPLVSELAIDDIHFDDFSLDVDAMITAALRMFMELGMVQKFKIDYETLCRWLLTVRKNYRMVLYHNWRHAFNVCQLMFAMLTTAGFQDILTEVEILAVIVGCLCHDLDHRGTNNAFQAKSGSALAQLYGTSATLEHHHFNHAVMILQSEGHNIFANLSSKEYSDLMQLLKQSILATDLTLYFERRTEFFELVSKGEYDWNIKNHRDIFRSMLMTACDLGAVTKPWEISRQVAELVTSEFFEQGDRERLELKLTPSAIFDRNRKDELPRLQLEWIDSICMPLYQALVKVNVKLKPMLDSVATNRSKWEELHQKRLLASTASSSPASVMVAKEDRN

One may read the IC50 as the concentration needed to halve the response being measured. `Cn1cc(-c2ccncc2)c(-c2ccc(OCc3ccc4ccccc4n3)cc2)n1` [MARDEPODECT]: in assay [1], the IC50 was determined as 1740 nM.
With `CCOc1ccc(Cc2nccc3cc(OCC)c(OCC)cc23)cc1OCC` [ETHAVERINE HYDROCHLORIDE], the IC50 in [1] was determined as 410 nM.
`O=C(O)c1ccc2c(c1)nc(Nc1cccc(Cl)c1)c1ccncc12` [SILMITASERTIB]: the IC50 in [1] amounted to 1000 nM.
As to `CCOc1ccn(-c2ccc(F)cc2)c(=O)c1C(=O)Nc1ccc(Oc2ccnc(N)c2Cl)c(F)c1` [BMS-777607], in [1], the IC50 came out at 2460 nM.
The inhibition is the change of the read-out against control, counted positive when it falls. For `COc1ccc(CNc2nc(N(CCO)CCO)nc3c2cnn3C(C)C)cc1`, the IC50 is more than 1000 nM in [2]; 2250 nM in assay [1]; 120 nM in assay [3]; 160 nM in [4]; more than 10000 nM in assay [5]; more than 10000 nM in [6]. In addition, the IC50 in [7] is more than 10000 nM; in [8], more than 1000 nM; in [9], more than 10000 nM. For the same compound, the inhibition in [10] turned out to be 59.6%; in assay [11] it was 67.9%. In addition, in the assay listed under Homo sapiens, the Ratio IC50 was found to be 1.
As for `COc1ccc2c(c1)CC[C@H]1[C@H]3CC[C@H](NCCCCCCN4C(=O)C=CC4=O)[C@@]3(C)CC[C@@H]21`, the IC50 in assay [1] stood at 940 nM.
As for `COc1ccc(CNc2nc(N(CCO)CCO)nc3c2ncn3C(C)C)cc1`, the IC50 in [12] was more than 1000 nM; in [13], more than 1000 nM; in [2], more than 10000 nM; in assay [1], 420 nM; in assay [3] it was 230 nM; in assay [5], more than 10000 nM. For the same compound, the IC50 is more than 10000 nM in assay [6], more than 10000 nM in [7], 1290 nM in assay [8] and more than 1000 nM in [9].
Regarding `COc1ccc(CNc2nc(N(CCO)CCO)nc3c2[nH]c(=O)n3C(C)C)cc1`, the IC50 was more than 10000 nM in [12]; more than 1000 nM in assay [13]; more than 10000 nM in assay [2]; 1780 nM in assay [1]; 40 nM in [3]; 90 nM in [4]. Moreover, the IC50 in [5], in assay [6], in assay [7], in [8] and in assay [9] was more than 10000 nM each time. In the assay listed under Homo sapiens, the Ratio IC50 came out at 2.
For `COc1ncc(-c2ccc3nccc(-c4ccnnc4)c3c2)cc1NS(=O)(=O)c1ccc(F)cc1F` [OMIPALISIB], in [1], the IC50 was determined as 1770 nM.
